Reference: US20260231994A1, “TASTE-ENHANCING COMPOSITION, METHOD FOR PRODUCING SAME, FOOD PRODUCT, AND METHOD FOR ENHANCING TASTE OF FOOD PRODUCT” (HOUSE FOODS GROUP INC., priority 2023, published 2026)

Assays:
Format in all cases: in vivo
[1] = Experiment 6 sensory evaluation of cyclic dipeptides, “top sharp saltiness”
Description: (§1) An aqueous solution in which the concentration of each of the cyclic dipeptides shown in the table described below is set to be the same as its concentration in the heat-treated coriander prepared in 1.1. described above, as estimated from the ratio of the peak area of the cyclic dipeptides to the peak area of the internal standard (47 μg/g of L-lysine-^13C6 monohydrochloride) (hereinafter referred to as “heat-treated coriander equivalent aqueous solution”) was prepared. An aqueous solution in which the concentration of each of the cyclic dipeptides is set to be the same as its concentration in the heat-treated paprika of Example 203 prepared in 2.1 described above (hereinafter referred to as “heat-treated paprika equivalent aqueous solution”) was also prepared. Cyclic dipeptides prepared by the applicant were used in this experiment. As a cyclic dipeptide comprising Leu/Ile, a mixture comprising equal parts of cyclic dipeptide comprising Leu and cyclic dipeptide comprising Ile was used.
(§2) Common and reduced-sodium curry rouxes were prepared according to the procedures described in (1) and (2) of 1.3. described above.
(§3) Two dispersions of 44 g of the aforesaid reduced-sodium curry roux dispersed in 300 g of hot water were prepared. To one of them was added the heat-treated coriander equivalent solution or heat-treated paprika equivalent aqueous solution of the individual cyclic dipeptides shown in the table described below so as to be in the final concentration of 0.5% (w/w) or 1.0% (w/w), respectively.
(§4) Forty-four grams of the aforesaid common curry roux was dispersed in 300 g of hot water.
(§5) The dispersion of reduced-sodium curry roux dispersed in hot water and the dispersion of common curry roux dispersed in hot water were used as comparative controls, and the strength of the flavor was evaluated by three evaluators on the basis of the following evaluation criteria from the viewpoint of “top sharp saltiness”, “middle fullness (enhanced thickness) and “boosting of last flavor (aftertaste).”
(§6) The average of the evaluated scores was defined as “F” when it was 1.0 or lower, “C” when it was 1.1 or higher and 1.9 or lower, “B” when it was 2.0 or higher and 2.5 or lower, “A” when it was 2.6 or higher and 2.9 or lower, and “AA” when it was 3.0 or higher.
(§7) In the table described below, “ID” refers to the compound ID described above. The items of “coriander 0.5%” and “coriander 1.0%” refer to the addition of the aforesaid heat-treated coriander equivalent aqueous solution of cyclic dipeptide so that the final concentrations may be 0.5% (w/w) and 1.0% (w/w), respectively. The items of “paprika 0.5%” and “paprika 1.0%” refer to the addition of the aforesaid heat-treated paprika equivalent aqueous solution of cyclic dipeptide so that the final concentration may be 0.5% (w/w) and 1.0% (w/w), respectively.

[2] = Experiment 6 sensory evaluation of cyclic dipeptides, “middle fullness (enhanced thickness)”
Description: as §1, §2, §3, §4, §5, §6, §7

[3] = Experiment 6 sensory evaluation of cyclic dipeptides, “boosting of last flavor (aftertaste)”
Description: as §1, §2, §3, §4, §5, §6, §7

[4] = Additive amount coriander 0.5% (heat-treated coriander equivalent aqueous solution, final 0.5% (w/w)), reduced-sodium curry roux
[5] = Additive amount coriander 0.5%, reduced-sodium curry roux
[6] = heat-treated coriander equivalent aqueous solution of cyclic dipeptide, final 1.0% (w/w) in reduced-sodium curry roux dispersion
[7] = heat-treated coriander equivalent aqueous solution of cyclic dipeptide, final 1.0% (w/w) in reduced-sodium curry roux dispersion, 3 evaluators
[8] = Additive amount paprika 0.5% (heat-treated paprika equivalent aqueous solution, final 0.5% (w/w)), reduced-sodium curry roux
[9] = Additive amount paprika 0.5%, reduced-sodium curry roux
[10] = heat-treated paprika equivalent aqueous solution of cyclic dipeptide, final 1.0% (w/w) in reduced-sodium curry roux dispersion
[11] = heat-treated paprika equivalent aqueous solution of cyclic dipeptide, final 1.0% (w/w) in reduced-sodium curry roux dispersion, 3 evaluators

Substance | Top sharp saltiness Average [1, 4] [points] | Top sharp saltiness Evaluation [1, 5] | Top sharp saltiness Evaluation [1, 6] | Top sharp saltiness Average [1, 7] [points] | Middle fullness Average [2, 5] [points] | Middle fullness Evaluation [2, 5] | Middle fullness Evaluation [2, 6] | Middle fullness Average [2, 7] [points] | Bosting of last flavor Average [3, 5] [points] | Bosting of last flavor Evaluation [3, 5] | Bosting of last flavor Evaluation [3, 6] | Bosting of last flavor Average [3, 7] [points] | Top sharp saltiness Average [1, 8] [points] | Top sharp saltiness Evaluation [1, 9] | Top sharp saltiness Evaluation [1, 10] | Top sharp saltiness Average [1, 11] [points] | Middle fullness Average [2, 9] [points] | Middle fullness Evaluation [2, 9] | Middle fullness Evaluation [2, 10] | Middle fullness Average [2, 11] [points] | also measured
cyclic (Ala-Tyr) [Coriander ID 26] | 2.2 | B (“B” when it was 2.0 or higher and 2.5 or lower) | C (“C” when it was 1.1 or higher and 1.9 or lower) | 1.3 | 2.3 | B (“B” when it was 2.0 or higher and 2.5 or lower) | B (“B” when it was 2.0 or higher and 2.5 or lower) | 2.2 | 2.2 | B (“B” when it was 2.0 or higher and 2.5 or lower) | B (“B” when it was 2.0 or higher and 2.5 or lower) | 2.3 |  |  |  |  |  |  |  |  | 
cyclic (Arg-Leu/Ile) [Coriander ID 22] | 2.6 | A (“A” when it was 2.6 or higher and 2.9 or lower) | B (“B” when it was 2.0 or higher and 2.5 or lower) | 2.0 | 2.6 | A (“A” when it was 2.6 or higher and 2.9 or lower) | B (“B” when it was 2.0 or higher and 2.5 or lower) | 2.5 | 2.7 | A (“A” when it was 2.6 or higher and 2.9 or lower) | A (“A” when it was 2.6 or higher and 2.9 or lower) | 2.8 |  |  |  |  |  |  |  |  | 
cyclic (Glu-Arg) [Coriander ID 8] |  |  |  |  |  |  |  |  |  |  |  |  | 1.8 | C (“C” when it was 1.1 or higher and 1.9 or lower) | B (“B” when it was 2.0 or higher and 2.5 or lower) | 2.2 | 2.2 | B (“B” when it was 2.0 or higher and 2.5 or lower) | B (“B” when it was 2.0 or higher and 2.5 or lower) | 2.5 | Bosting of last flavor Average [3, 9]: 2.7 points; Bosting of last flavor Evaluation [3, 9]: A (“A” when it was 2.6 or higher and 2.9 or lower); Bosting of last flavor Evaluation [3, 10]: B (“B” when it was 2.0 or higher and 2.5 or lower); Bosting of last flavor Average [3, 11]: 2.3 points
cyclic (Glu-Asp) [Coriander ID 12] |  |  |  |  |  |  |  |  |  |  |  |  | 1.8 | C (“C” when it was 1.1 or higher and 1.9 or lower) | C (“C” when it was 1.1 or higher and 1.9 or lower) | 1.5 | 2.7 | A (“A” when it was 2.6 or higher and 2.9 or lower) | B (“B” when it was 2.0 or higher and 2.5 or lower) | 2.0 | Bosting of last flavor Average [3, 9]: 2.3 points; Bosting of last flavor Evaluation [3, 9]: B (“B” when it was 2.0 or higher and 2.5 or lower); Bosting of last flavor Evaluation [3, 10]: B (“B” when it was 2.0 or higher and 2.5 or lower); Bosting of last flavor Average [3, 11]: 2.0 points
cyclic (Glu-Glu) |  |  |  |  |  |  |  |  |  |  |  |  | 2.0 | B (“B” when it was 2.0 or higher and 2.5 or lower) | B (“B” when it was 2.0 or higher and 2.5 or lower) | 2.2 | 2.3 | B (“B” when it was 2.0 or higher and 2.5 or lower) | B (“B” when it was 2.0 or higher and 2.5 or lower) | 2.5 | Bosting of last flavor Average [3, 9]: 2.5 points; Bosting of last flavor Evaluation [3, 9]: B (“B” when it was 2.0 or higher and 2.5 or lower); Bosting of last flavor Evaluation [3, 10]: B (“B” when it was 2.0 or higher and 2.5 or lower); Bosting of last flavor Average [3, 11]: 2.2 points
cyclic (Glu-Gly) [Coriander ID 9] | 2.2 | B (“B” when it was 2.0 or higher and 2.5 or lower) | B (“B” when it was 2.0 or higher and 2.5 or lower) | 2.0 | 2.8 | A (“A” when it was 2.6 or higher and 2.9 or lower) | AA (“AA” when it was 3.0 or higher) | 3.0 | 2.8 | A (“A” when it was 2.6 or higher and 2.9 or lower) | B (“B” when it was 2.0 or higher and 2.5 or lower) | 2.5 |  |  |  |  |  |  |  |  | 
cyclic (Glu-His) [Coriander ID 6] | 3.2 | AA (“AA” when it was 3.0 or higher) | AA (“AA” when it was 3.0 or higher) | 4.0 | 3.3 | AA (“AA” when it was 3.0 or higher) | AA (“AA” when it was 3.0 or higher) | 3.8 | 3.0 | AA (“AA” when it was 3.0 or higher) | AA (“AA” when it was 3.0 or higher) | 3.7 |  |  |  |  |  |  |  |  | 
cyclic (Glu-Leu/Ile) [Coriander ID 47] | 2.3 | B (“B” when it was 2.0 or higher and 2.5 or lower) | B (“B” when it was 2.0 or higher and 2.5 or lower) | 2.2 | 2.8 | A (“A” when it was 2.6 or higher and 2.9 or lower) | B (“B” when it was 2.0 or higher and 2.5 or lower) | 2.3 | 3.0 | AA (“AA” when it was 3.0 or higher) | A (“A” when it was 2.6 or higher and 2.9 or lower) | 2.7 |  |  |  |  |  |  |  |  | 
